Laboratory results from patent US6737383B1, “Herbicidal oxadiazolidines” (priority 1999, dated 2004).

What was measured:
spring wheat = experiment: Test E spring wheat; type: in vivo, Triticum aestivum; settings: Postemergence
Summary of the method: (§1)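 Postemergence: 60:40 sandy loam/greenhouse potting mix, 1- to 4-leaf stage. Formulation: solvent plus surfactant. Assessment: visual comparison with untreated controls at ~21–28 days.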

rape = experiment: Test E rape; type: in vivo, Brassica napus; settings: Preemergence
field bindweed = experiment: Test C postemergence field bindweed; type: in vivo, Convolvulus arvensis; settings: 0 to 100 scale, 0 no effect, 100 complete control
Summary of the method: (§2)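 Greenhouse postemergence test: compound applied in solvent/surfactant formulation to established plants; visual scoring 0–100 against untreated controls after roughly two to three weeks (14–21 days).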

chickweed = experiment: Test E chickweed; type: in vivo, Stellaria media; settings: Preemergence
galium = experiment: Test E galium; type: in vivo, Galium aparine; settings: Postemergence
Summary of the method: as §1

sugar beet = experiment: Test E sugar beet; type: in vivo, Beta vulgaris; settings: Preemergence
wild oat = experiment: Test E wild oat; type: in vivo, Avena fatua; settings: Postemergence
Summary of the method: as §1

Russian thistle = experiment: Test E Russian thistle; type: in vivo, Salsola kali; settings: Preemergence
lambsquarters = experiment: Test E lambsquarters; type: in vivo, Chenopodium album; settings: Preemergence
fall panicum = experiment: Test C postemergence fall panicum; type: in vivo, Panicum dichotomiflorum; settings: 0 to 100 scale, 0 no effect, 100 complete control
Summary of the method: as §2

spring barley = experiment: Test E spring barley; type: in vivo, Hordeum vulgare; settings: Preemergence
purple nutsedge = experiment: Test C postemergence purple nutsedge; type: in vivo, Cyperus rotundus; settings: 0 to 100 scale, 0 no effect, 100 complete control
Summary of the method: as §2

field violet = experiment: Test E field violet; type: in vivo, Viola arvensis; settings: Preemergence
windgrass = experiment: Test E windgrass; type: in vivo, Apera spica-venti; settings: Postemergence, Rate 62 g/ha; 0 to 100 scale
Summary of the method: as §1

downy brome = experiment: Test E downy brome; type: in vivo, Bromus tectorum; settings: Preemergence
[1] = Rate 250 g/ha, 0 to 100 scale (0 no effect, 100 complete control)
[2] = Rate 62 g/ha, 0 to 100 scale, 0 no effect, 100 complete control
[3] = Rate 125 g/ha, 0 to 100 scale (0 no effect, 100 complete control)

C=CCn1c(=O)on(C(=O)N(c2ccccc2)C(C)C)c1=O [Compound 93]
Plant response rating, Spring Wheat (spring wheat; Rate 62 g/ha, 0 to 100 scale): 0
Plant response rating, Spring Wheat (spring wheat; Rate 125 g/ha, 0 to 100 scale): 0
Plant response rating, Spring Wheat (spring wheat; [1]): 0
Plant response rating, Rape (rape; [2]): 0
Plant response rating, Rape (rape; [3]): 0
Plant response rating, Rape (rape; Rate 250 g/ha, 0 to 100 scale): 10
Plant response rating Field bindweed (field bindweed; Rate 140 g/ha): 0
Plant response rating Field bindweed (field bindweed; Rate 280 g/ha): 0
Plant response rating Field bindweed (field bindweed; Rate 560 g/ha): 0
Plant response rating Field bindweed (field bindweed; Rate 1120 g/ha): 50
Plant response rating, Chickweed (chickweed; [2]): 60
Plant response rating, Chickweed (chickweed; [3]): 20
Plant response rating, Chickweed (chickweed; Rate 250 g/ha, 0 to 100 scale): 100
Plant response rating, Galium (galium; Rate 62 g/ha, 0 to 100 scale): 0
Plant response rating, Galium (galium; Rate 125 g/ha, 0 to 100 scale): 0
Plant response rating, Galium (galium; [1]): 0
Plant response rating, Sugar beet (sugar beet; [2]): 0
Plant response rating, Sugar beet (sugar beet; [3]): 10
Plant response rating, Sugar beet (sugar beet; Rate 250 g/ha, 0 to 100 scale): 5
Plant response rating, Wild oat (wild oat; Rate 62 g/ha, 0 to 100 scale): 0
Plant response rating, Wild oat (wild oat; Rate 125 g/ha, 0 to 100 scale): 0
Plant response rating, Wild oat (wild oat; [1]): 0
Plant response rating, Russian thistle (Russian thistle; [2]): 0
Plant response rating, Russian thistle (Russian thistle; [3]): 0
Plant response rating, Russian thistle (Russian thistle; Rate 250 g/ha, 0 to 100 scale): 0
Plant response rating, Lambsquarters (lambsquarters; [2]): 100
Plant response rating, Lambsquarters (lambsquarters; [3]): 100
Plant response rating, Lambsquarters (lambsquarters; Rate 250 g/ha, 0 to 100 scale): 100
Plant response rating Fall panicum (fall panicum; Rate 140 g/ha): 0
Plant response rating Fall panicum (fall panicum; Rate 280 g/ha): 80
Plant response rating Fall panicum (fall panicum; Rate 560 g/ha): 90
Plant response rating Fall panicum (fall panicum; Rate 1120 g/ha): 90
Plant response rating, Spring Barley (spring barley; [2]): 5
Plant response rating, Spring Barley (spring barley; [3]): 10
Plant response rating, Spring Barley (spring barley; Rate 250 g/ha, 0 to 100 scale): 60
Plant response rating, Purple nutsedge (purple nutsedge; Rate 140 g/ha): 0
Plant response rating, Purple nutsedge (purple nutsedge; Rate 280 g/ha): 0
Plant response rating, Purple nutsedge (purple nutsedge; Rate 560 g/ha): 0
Plant response rating, Purple nutsedge (purple nutsedge; Rate 1120 g/ha): 10
Plant response rating, Field violet (field violet; [2]): 0
Plant response rating, Field violet (field violet; [3]): 10
Plant response rating, Field violet (field violet; Rate 250 g/ha, 0 to 100 scale): 30
Plant response rating, Windgrass (windgrass): 60
Plant response rating, Downy brome (downy brome; [2]): 40
Plant response rating, Downy brome (downy brome; [3]): 60
Plant response rating, Downy brome (downy brome; Rate 250 g/ha, 0 to 100 scale): 20
